# From US20210289794A1, “COMPOSITIONS AND RELATED METHODS FOR AGRICULTURE” (Flagship Pioneering Innovations V, Inc., priority 2018, published 2021)
# Peptide text beside a SMILES is read from it.
# System: Candidatus Pantoea carbekii
# Assay: Quantification of P. carbekii titers by RT-qPCR in H. halys nymphs hatched from treated eggs
# Format: in vivo, Halyomorpha halys
# Details: for levels of P. carbekii (symbiont levels per host; ratio of P. carbekii dnaK to H. halys 60s expression): Example 5: egg mass treatment, late 2nd instars, vs water control, FIG. 5; for levels of P. carbekii (ratio of P. carbekii dnaK to H. halys 60s expression): third instars collected, vs negative control
# Method: Total RNA was extracted from nymphs using total RNA isolation and purification kits (both from Thermo Fisher Scientific), and the extracted RNA was eluted in 100 μL water. […] Each of the PCR mixtures was 10 μL in volume. RT-qPCR was performed using a PCR amplification ramp of 1.6° C./s and the following conditions: 1) 48° C. for 30 min; 2) 95° C. for 10 minutes; 3) 95° C. for 15 seconds; 4) 55° C. for 30 seconds; 5) repeat steps 3-4 40×, 6); 95° C. for 15 seconds; 7) 55° C. for 1 minute; 8) ramp change to 0.15° C./s; 9) 95° C. for 1 second. RT-qPCR data was analyzed using analytic software (Thermo Fisher Scientific).
# Working concentrations of the PHA synthesis inhibitors (vanillin, levulinic acid, acrylic acid (AA), and 2-bromooctanoic acid (2BA)) were made up to 100 μg/ml in water. The solutions of PHA inhibitors were spiked with a non-ionic wetting solution to a final concentration of 0.025% to increase the wettability and spreading of the agents on the eggs. As a negative control, no agents were added to the 0.025% non-ionic wetting solution, and as a positive control, 100 μg/ml of the antibiotic rifamycin S was used. Egg masses on leaf disks were removed from the colony in a single day during peak egg production. Each egg mass was then placed in a container with a paper towel at the bottom, and a tube of water plugged with cotton was provided as a water source for the hatchlings. 100 μl of the agent was pipetted onto the eggs to wet them completely. This allowed the agent to interact directly with the bacteria before the bacteria was able to colonize the host. Once the 1st instar hatchlings molted to the 2nd instar stage, food was provided in the form of 500 mg diet pellets (see “Halyomorpha halys lab colony rearing and maintenance” above). Late 2nd instars were collected and frozen to extract DNA to assay for the symbiont levels, as described in Example 4. […]
# [1] = 100 μg/ml in water with 0.025% non-ionic wetting solution, 100 μl
# [2] = Example 6: egg mass treatment, 100 μg/ml in water with 0.025% Silwet L-77, 100 μl, FIG. 6
Compound,levels of P. carbekii (symbiont levels per host; ratio of P. carbekii dnaK to H. halys 60s expression) [1],levels of P. carbekii (ratio of P. carbekii dnaK to H. halys 60s expression) [2],"levels of P. carbekii (ratio of P. carbekii dnaK to H. halys 60s expression) (Example 7: egg mass treatment, 100 μg/ml in water with 0.025% non-ionic wetting solution, 100 μl, FIG. 7)"
CCCCCCC(Br)C(=O)O (centres unmarked) [2-bromooctanoic acid],reduction in the symbiont levels per host,,
CO[C@H]1/C=C/O[C@@]2(C)Oc3c(C)c(O)c4c(c3C2=O)C(=O)C=C(NC(=O)/C(C)=C\C=C\[C@H](C)[C@H](O)[C@@H](C)[C@@H](O)[C@@H](C)[C@H](OC(C)=O)[C@@H]1C)C4=O [Rifamycin S],significantly lower,significantly lower,significantly lower
C=CC(=O)O [acrylic acid],reduction in the symbiont levels per host,,
"CC[C@H](C)[C@H](N)C1=N[C@H](C(=O)N[C@@H](CC(C)C)C(=O)N[C@H](CCC(=O)O)C(=O)N[C@H](C(=O)N[C@H]2CCCCNC(=O)[C@H](CC(N)=O)NC(=O)[C@@H](CC(=O)O)NC(=O)[C@H](Cc3cnc[nH]3)NC(=O)[C@@H](Cc3ccccc3)NC(=O)[C@H]([C@@H](C)CC)NC(=O)[C@@H](CCCN)NC2=O)[C@@H](C)CC)CS1 [bacitracin] (HELM PEPTIDE1{[CC[C@H](C)[C@H](N)C1=N[C@H](C(=O)[*:2])CS1].L.[dE].I.K.[NCCC[C@@H](N[*:1])C(=O)[*:2]].I.[dF].H.[dD].N}$PEPTIDE1,PEPTIDE1,5:R3-11:R2$$$V2.0)",,significantly lower,
CC(=O)CCC(=O)O [levulinic acid],reduction in the symbiont levels per host,,
COc1cc(C=O)ccc1O [vanillin],reduction in the symbiont levels per host,,
